Where two headings read alike, the source gives them in different places.
Assays:
[1] = tested on: G361 cells (human skin melanoma); assay: MTT cell viability assay with photodynamic treatment; format: cell-based
Protocol: (§1) For photodynamic treatments, G361 cells (human skin melanoma) were cultivated in DMEM medium without phenol red supplemented with 10% fetal bovine serum, 100 U/mL penicillin, 100 μg/mL streptomycin, 2 mM glutamine, at 37° C. in 5% CO2 atmosphere. Cells were treated with test compounds and after 4 h were irradiated (the maximal wavelength emission of 414 nm and different total doses up to 10 J/cm^2). Further cultivation lasted for subsequent 16, 24 or 72 h.
Cell viability (EC50) was determined using the MTT (Sigma-Aldrich) assay in 96-well microplates. Cells were seeded, next day treated with test compounds for 4 h and subsequently irradiated (the maximal wavelength emission of 414 nm and total dose of 2.5 and 10 J/cm^2). After irradiation, the cells were incubated for further 72 h and then the MTT solution was added. Cells were incubated for another 4 h at 37° C. and then the 0.1% SDS was added to the wells to solubilize the violet formazan crystals. The measurement of absorbance was carried out on reader Tecan Infinite M200Pro at 570 nm. Dark viability was measured in parallel under the same conditions without irradiation.

G361 cells [2] = assay: Evaluation of cellular viability by microscopy (propidium iodide staining); format: cell-based, human; conditions: 1.1 μM+10 J/cm^2, 16 h after irradiation
Protocol: G361 cells were treated with compound 3g, 4 h later irradiated with 10 J/cm^2 and further cultivated for 16 h. Control cells were treated with the same compound without irradiation. After the incubation period, cells were stained with propidium iodide (final concentration 10 μg/mL) to evaluate their viability by fluorescence microscopy. In parallel, the morphology of treated cells was evaluated by light microscopy. Experiment clearly confirmed the ability of compound 3g to affect cellular viability after light irradiation in dose-dependent manner as shown by positive propidium iodide staining (>95% of analyzed cells at 1.1 μM of compound 3g+10 J/cm^2) as well as significant morphological changes reflecting ongoing cellular death (FIG. 3).

G361 cells [3] = assay: Flow cytometric detection of cell death (sub-G1 populations); format: cell-based, human; conditions: for number of cells in sub-G1 population: G361 cells
Protocol: as §1
Asynchronous cells were seeded and, after a pre-incubation period, treated with compound 3g for 4 h, irradiated and after further 24 h of incubation, samples were fixed and stained with propidium iodide. DNA content was analyzed by flow cytometry using a 488 nm laser (BD FACS Verse with software BD FACSuite™, version 1.0.6.) and cell cycle distribution was analyzed using ModFit LT (Verity Software House).

caspases 3 and 7 = assay: Caspase-3/7 assay; format: cell-based, human; conditions: G361 cells; 1.1 μM+10 J/cm^2
Protocol: The cell lysates were incubated for 4 h with 100 μM Ac-DEVD-AMC (the substrate of caspases 3 and 7) in the assay buffer (25 mM PIPES, 2 mM EGTA, 2 mM MgCl2, 5 mM DTT, pH 7.3). The fluorescence of the product was measured using a Fluoroskan Ascent microplate reader (Labsystems) at 355/460 nm (excitation/emission).
To confirm apoptosis as a mechanism of cell death, activity of pro-apoptotic caspases 3 and 7, which are involved in mediating cell death signalling transduction, was quantified upon treatment with compound 3g and light irradiation (FIG. 1).

G361 cells [4] = assay: DNA damage and apoptotic cell death by immunoblotting analysis; format: cell-based, human; conditions: 24 h
Protocol: To confirm DNA damage caused by a combination of compound 3g and irradiation in G361 cells, phosphorylation of histone H2A.X at Ser-139 (γH2A.X), which is a well-accepted marker of DNA damage, was evaluated using immunoblotting analysis (FIG. 2). The cells were treated with different doses (0.1, 0.3 or 1.1 μM) of compound 3g for 4 h, then either kept in dark or exposed to light with a total irradiation dose of 10 J/cm^2 and cultivated for subsequent 24 h. After this period, the cells were harvested and analyzed by immunoblotting.
The cell lysates were prepared in RIPA buffer. Equal protein amounts were loaded and separated on SDS-polyacrylamide gels, electroblotted onto nitrocellulose membranes and after blocking, overnight incubation with specific primary antibodies and incubation with peroxidase-conjugated secondary antibodies, the peroxidase activity was detected with SuperSignal West Pico reagents (Thermo Scientific) using a CCD camera LAS-4000 (Fujifilm). All primary antibodies were diluted in TBS containing 4% BSA and 0.1% Tween 20. The specific antibodies were purchased from Cell Signaling (anti-PARP-1, clone 46D11; anti-caspase 7; HRP-linked secondary antibodies), Santa Cruz Biotechnology (anti-β-actin, clone C4), Millipore (anti-phospho-histone H2A.X, Ser139, clone JBW301).
The cleavage of PARP-1, an enzyme involved in DNA repair, which gets cut and inactivated by caspases during apoptotic cell death, was also apparent when combining said concentration and irradiation dose. […] It confirms that the above observation is a consequence of a photodynamic effect.

[5] = Absorption and fluorescence properties in water; format: physicochemical
Protocol: To determine the wavelength of light, at which 1,1-dimethyl-2-[(E)-2-phenylethenyl]-1H-benzo[e]indole derivatives should be irradiated for the investigation of their photodynamic activity, the absorption and fluorescence properties thereof were measured in water. The excitation wavelength λex was set to 380 nm. Based on the results an in-house constructed LED based light source specifically designed for the irradiation of 96-well microplates and Petri dishes (Tomecka et al., CZ302829B6, 2006) was chosen, with a maximal wavelength emission of 414 nm and light intensity set to 20 mW/cm^2.

EC50 ([1]; G-361, G361 cells, light energy: Dark (Table 4), read-out: EC50 ± SD): 7600 ± 900 nM | EC50 ([1]; G-361, dark kept G361 cells, 4 h treatment, further 72 h, MTT, read-out: G361 - EC50, Dark): 6200 nM | EC50 ([1]; G-361, light or radiation study, G361 cells, light energy 2.5 J/cm^2 (Table 4), read-out: EC50 ± SD): 1200 ± 300 nM | EC50 ([1]; G-361, light or radiation study, G361 cells, light energy 10 J/cm^2 (Table 4), read-out: EC50 ± SD): 700 ± 100 nM | EC50 ([1]; G-361, light or radiation study, light irradiated (414 nm, 10 J/cm^2) G361 cells, 4 h treatment, irradiation, further 72 h, MTT, read-out: G361 - EC50, 10 J/cm^2): 600 nM | Stokes shift [5]: 102 nm | λabs [5]: 433 nm | λem ([5]; excitation wavelength 380 nm): 535 nm
SMILES: CC1(C)C(/C=C/c2ccc(C#N)c(F)c2)=Nc2ccc3ccccc3c21 [Compound 3g, 4-[(E)-2-(1,1-Dimethyl-1H-benzo[e]indol-2-yl)ethenyl]-2-fluorobenzonitrile]
positive propidium iodide staining (G361 cells [2]): > 95 % of analyzed cells | number of cells in sub-G1 population (G361 cells [3]; 0.3 μM, 1.1 J/cm^2, 24 h after irradiation): 0 (number of cells in sub-G1 population <10% (0)) | number of cells in sub-G1 population (G361 cells [3]; 0.3 μM, 3.3 J/cm^2, 24 h after irradiation): 0 (number of cells in sub-G1 population <10% (0)) | number of cells in sub-G1 population (G361 cells [3]; 0.3 μM, Dark, 24 h): 0 (number of cells in sub-G1 population <10% (0)) | number of cells in sub-G1 population (G361 cells [3]; 1.1 μM, 1.1 J/cm^2, 24 h after irradiation): 0 (number of cells in sub-G1 population <10% (0)) | number of cells in sub-G1 population (G361 cells [3]; 1.1 μM, 3.3 J/cm^2, 24 h after irradiation): + (10-50% (+)) | number of cells in sub-G1 population (G361 cells [3]; 1.1 μM, Dark, 24 h): 0 (number of cells in sub-G1 population <10% (0)) | number of cells in sub-G1 population (G361 cells [3]; 3.3 μM, 1.1 J/cm^2, 24 h after irradiation): + (10-50% (+)) | number of cells in sub-G1 population (G361 cells [3]; 3.3 μM, 3.3 J/cm^2, 24 h after irradiation): ++ (>50% (++)) | number of cells in sub-G1 population (G361 cells [3]; 3.3 μM, Dark, 24 h): 0 (number of cells in sub-G1 population <10% (0)) | sub-diploid (sub-G1) populations (G361 cells [3]; treated and irradiated G361 cells, concentration and light irradiation dependent): increase | capacity to induce apoptosis (caspase 3/7 activity) (caspases 3 and 7): clearly apparent | H2A.X phosphorylation (Ser-139, γH2A.X) (G361 cells [4]; G361 cells kept in the dark, 0.1, 0.3 or 1.1 μM): did not show any H2A.X phosphorylation | H2A.X phosphorylation (Ser-139, γH2A.X) level (G361 cells [4]; G361 cells, 1.1 μM+10 J/cm^2): massive increase | cleavage of PARP-1 (G361 cells [4]; G361 cells, 1.1 μM+10 J/cm^2): apparent | caspase 7 cleavage (G361 cells [4]; G361 cells, treated and irradiated (10 J/cm^2)): cleavage activation of caspase 7

Reference: patent US12503437B2, “1,1-dimethyl-2-[(E)-2-phenylethenyl]-1H-benzo[e]indole derivatives and uses thereof” (Kaunas University of Technology, priority 2023, dated 2025)
